# Assay results as given in patent publication US11576915B2, “Method for treating pulmonary arterial hypertension and associated pulmonary arterial hypertension and daily dosing” (Altavant Sciences GmbH, priority 2019, dated 2023).
# Experiments:
# [1] = Example 3 healthy subjects QD vs BID: KAR5417 plasma levels; type: in vivo, human
# Method: (§1) 24 healthy subjects received 800 mg total daily oral doses of RVT-1201 or placebo (PBO), either as single (800 mg QD) or divided (400 mg BID) doses for 14 days across two cohorts (9 active: 3 PBO per cohort). KAR5417 plasma levels and change from Baseline (BSL) PD biomarker data (plasma and urine 5-HIAA) were compared between QD and BID cohorts at day 14. Safety and tolerability were assessed via adverse event (AE) monitoring and laboratory, vital signs and ECG assessments.
# serotonin biosynthesis [2] = experiment: Example 2 healthy human subjects: plasma 5-HIAA; type: in vivo; conditions: 400 mg BID, Day 1 to Day 14
# Method: (§2) Mean change in plasma 5-HIAA may be about −53% from Day 1 to Day 14, whereas placebo may be about +26%. Interpolation of KAR5417 AUC between 400 mg and 800 mg BID regimens may show 500-600 mg BID in humans will achieve the target exposure associated with efficacy in rat models.
# [3] = Example 2 healthy human subjects: safety and tolerability; type: in vivo; conditions: doses required to achieve clinically-relevant AUC
# Method: (§3) Healthy human subjects (n=˜120) may receive RVT-1201.
# as §2
# PAH [4] = experiment: PAH rodent models (Example 3 background); type: in vivo, rat
# Method: (§4) TPH1 is the rate-limiting enzyme for peripheral biosynthesis of serotonin (5HT), which has been implicated as a causative factor in PAH. RVT-1201 decreased pulmonary vessel wall thickness in 2 PAH rodent models indicating potential to halt/reverse pulmonary remodeling in humans. The median effective dose (100 mg/kg QD) in PAH rat models yielded a ˜35% reduction in 5-HT biosynthesis (based on urinary 5-HIAA, a metabolite of 5HT). […] The example compares reductions in 5-HIAA levels following QD and BID dosing in healthy subjects.
# serotonin biosynthesis [5] = experiment: Example 3 healthy subjects QD vs BID: plasma and urine 5-HIAA; type: in vivo, human; conditions: day 14, change from baseline
# Method: as §1
# serotonin biomarkers = experiment: divided dose pharmacodynamic studies in rats (QD vs BID vs TID); type: in vivo, rat
# Method: as §4
# PAH [6] = experiment: monocrotaline prevention model of PAH; type: in vivo; conditions: rat, oral 100 mg/kg/day
# [7] = Example 3 healthy subjects QD vs BID: safety and tolerability; type: in vivo, human
# Method: as §1
# serotonin biosynthesis [8] = experiment: rat serotonin biomarkers (serum serotonin, urinary 5-HIAA); type: in vivo; conditions: 30 to 300 mg/kg/day, dose-dependent
# Method: RVT-1201 (30 to 300 mg/kg/day) may yield a dose-dependent reduction in rat serum serotonin (−27% to −96%) and 24 h urinary output of 5-HIAA (−45% to −56%). HIAA is a metabolite that reflects total serotonin biosynthesis.
# [9] = Example 2 healthy human subjects: pharmacokinetics; type: in vivo
# Method: as §3, §2
# PAH [10] = experiment: SUGEN-hypoxia treatment model for established PAH; type: in vivo; conditions: rat, oral 100 mg/kg/day
# [11] = polymorph stability and shelf life; type: physicochemical; conditions: particularly at temperatures of less than 95° C.
# Excerpt: The above-referenced compound can be used to prevent or treat PAH/APAH in either an amorphous or crystalline form. Two different polymorph crystalline forms are identified by x-ray powder diffraction patterns set forth in FIG. 1 (Form 3) and FIG. 2 (Form 1) as well as Tables 1 and 2 (Form 3) and Tables 3 and 4 (Form 1).
smiles,measurement,setting,value
"Nc1nc(O[C@H](c2ccc(Cl)cc2-c2ccccc2)C(F)(F)F)cc(N2CCC3(CC2)CN[C@H](C(=O)O)C3)n1 [KAR5417, (S)-8-(2-amino-6-((R)-1-(5-chloro-[1,1′-biphenyl]-2-yl)-2,2,2-trifluoroeth-oxy)pyrimidin-4-yl)-2,8-diazaspiro[4.5]decane-3-carboxylic acid]",KAR5417 mean pAUC0-24,"[1]; RVT-1201 400 mg BID oral, day 14",10400 ng*h/mL
same,AUC(0-t),"[1]; human, plasma, RVT-1201 800 mg QD oral, day 14, read-out: KAR5417 mean AUC0-24",9180 ng·h/mL
"CCOC(=O)[C@@H]1CC2(CCN(c3cc(O[C@H](c4ccc(Cl)cc4-c4ccccc4)C(F)(F)F)nc(N)n3)CC2)CN1 [RVT-1201, (S)-ethyl 8-(2-amino-6-((R)-1-(5-chloro-[1,1′-biphenyl]-2-yl)-2,2,2-trifluoroethoxy)pyrimidin-4-yl)-2,8-diazaspiro[4.5]decane-3-carboxylate]",mean change in plasma 5-HIAA,serotonin biosynthesis [2],about −53%
same,tolerability,[3],well tolerated
same,pulmonary vessel wall thickness,PAH [4]; 2 PAH rodent models,decreased
same,median effective dose,"PAH [4]; PAH rat models, QD",100 mg/kg
same,reduction in 5-HT biosynthesis (based on urinary 5-HIAA),"PAH [4]; PAH rat models, at median effective dose 100 mg/kg QD",~35%
same,mean (±SD) reduction in plasma 5-HIAA,serotonin biosynthesis [5]; 400 mg BID,49.9 (9.52) %
same,mean (±SD) reduction in urinary 5-HIAA,serotonin biosynthesis [5]; 400 mg BID,55.5 (10.3) %
same,mean (±SD) reduction in plasma 5-HIAA,serotonin biosynthesis [5]; 800 mg QD,40.0 (6.32) %
same,mean (±SD) reduction in urinary 5-HIAA,serotonin biosynthesis [5]; 800 mg QD,45.8 (6.59) %
same,"QD dosing versus more frequent dosing, lowering of 5-HT","serotonin biomarkers; healthy rats, QD vs BID vs TID",as effective as more frequent dosing
same,once daily administration versus BID or TID regimens,"serotonin biomarkers; rats, 75 mg/kg/day",comparable to BID or TID regimens
same,serotonin reduction,"serotonin biomarkers; rats, 75 mg/kg/day, divided dose studies",~65%
same,block or ameliorate PAH,PAH [6],may block or ameliorate PAH
same,overall incidence of GI-related AEs,"[7]; QD group (800 mg QD), 14 days",78%
same,tolerability,"[7]; both dose regimens (800 mg QD, 400 mg BID), 14 days",generally well-tolerated
same,overall incidence of GI-related AEs,"[7]; divided dose group (400 mg BID), 14 days",33%
same,treatment-related withdrawals,[7]; either cohort,no treatment-related withdrawals
same,reduction in 24 h urinary output of 5-HIAA,serotonin biosynthesis [8],−45% to −56%
same,reduction in rat serum serotonin,serotonin biosynthesis [8],−27% to −96%
same,human dose achieving target exposure associated with efficacy in rat models,"[9]; BID, interpolation of KAR5417 AUC between 400 mg and 800 mg BID regimens",500 to 600 mg
same,AUC following single doses versus dose,"[9]; healthy human subjects, standard meals, single doses 200 to −1200 mg",proportional to dose
same,block or ameliorate PAH,PAH [10],may block or ameliorate PAH
"CCOC(=O)[C@@H]1CC2(CCN(c3cc(O[C@H](c4ccc(Cl)cc4-c4ccccc4)C(F)(F)F)nc(N)n3)CC2)CN1 [crystalline Form 3, (S)-ethyl 8-(2-amino-6-((R)-1-(5-chloro-[1,1′-biphenyl]-2-yl)-2,2,2-trifluoroethoxy)pyrimidin-4-yl)-2,8-diazaspiro[4.5]decane-3-carboxylate]",stability and shelf life compared to crystalline Form 1,[11],substantially greater stability and shelf life
